Experimental findings from patent publication USRE47193E1, “Selectively substituted quinoline compounds” (EISAI R&D MANAGEMENT CO., LTD., priority 2013, dated 2019) are described below.

The subject of one test is Human TLR7/8. Briefly: Human PBMC cell-based assay, TLR7/8 stimulus (RNA-Ig), cytokine ELISA. Particulars: primary human PBMC assay, TLR7/8 potency; ligand not given; read-out: Human PBMCs IC50. Summed up:
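Healthy-donor human PBMC, 2×10^5 cells/well (1×10^5 in later assay), pre-treated 30 min with compound (0.1% DMSO). Stimulated 20 h at 37 °C with RNA-Ig: 26-mer U1 snRNA stem loop IV phosphorothioate RNA at 2.5 μM plus anti-ssDNA antibody (1:25 or 1 ug/ml). Supernatant cytokines by ELISA.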

Another test concerns the target T1, human TLR8 (Homo sapiens, UniProt Q9NR97).
T1 construct: host or cells: HEK-293, then stably transfected with pNiFty2(NF-kappaB)-luciferase reporter
T1 sequence (Q9NR97 27-1041): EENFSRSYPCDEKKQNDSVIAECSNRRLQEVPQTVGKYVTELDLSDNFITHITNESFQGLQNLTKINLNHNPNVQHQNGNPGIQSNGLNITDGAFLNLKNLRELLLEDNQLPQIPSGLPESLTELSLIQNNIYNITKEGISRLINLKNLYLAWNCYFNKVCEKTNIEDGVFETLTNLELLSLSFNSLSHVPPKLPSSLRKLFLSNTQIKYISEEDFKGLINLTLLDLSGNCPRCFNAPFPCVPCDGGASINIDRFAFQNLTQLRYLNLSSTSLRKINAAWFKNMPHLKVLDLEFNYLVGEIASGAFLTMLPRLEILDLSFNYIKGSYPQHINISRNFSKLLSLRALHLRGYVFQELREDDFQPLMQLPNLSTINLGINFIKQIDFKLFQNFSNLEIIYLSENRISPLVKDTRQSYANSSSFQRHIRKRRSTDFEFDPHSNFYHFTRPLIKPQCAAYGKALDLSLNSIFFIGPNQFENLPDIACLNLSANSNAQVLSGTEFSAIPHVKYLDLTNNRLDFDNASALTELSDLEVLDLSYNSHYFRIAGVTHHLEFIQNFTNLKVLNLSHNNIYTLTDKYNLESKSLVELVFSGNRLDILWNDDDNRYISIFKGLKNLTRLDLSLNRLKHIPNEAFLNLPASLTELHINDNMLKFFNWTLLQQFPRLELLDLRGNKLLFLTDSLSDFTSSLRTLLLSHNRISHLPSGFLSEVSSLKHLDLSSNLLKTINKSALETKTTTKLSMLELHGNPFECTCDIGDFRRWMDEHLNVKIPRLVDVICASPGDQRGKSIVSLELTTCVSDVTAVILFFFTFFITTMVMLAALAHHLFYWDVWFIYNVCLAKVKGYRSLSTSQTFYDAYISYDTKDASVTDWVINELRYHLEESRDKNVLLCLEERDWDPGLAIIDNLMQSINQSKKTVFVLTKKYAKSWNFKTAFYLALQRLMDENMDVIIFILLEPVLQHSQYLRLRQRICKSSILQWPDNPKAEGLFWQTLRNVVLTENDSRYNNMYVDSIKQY
Briefly: HEK-293 human TLR8 NF-kappaB luciferase reporter assay (CL097). It is filed as cell-based. Particulars: HEK-293 assay format; read-out: HEK/hTLR8 IC50. How it is done:
Effects on mouse TLR7 were also compared. Cells were stimulated overnight with TLR7/8 agonist CL097 at pre-determined ED70-80: 3 ug/ml for HEK-hTLR7, 1.5 ug/ml for HEK-mTLR7 and 12 ug/ml for HEK-hTLR8, before reading luminescence intensity. Three tests were performed and IC50 value was determined using Graphpad Prism 6 nonlinear regression curve fit.
HEK-293 cells (ATCC) were engineered to stably express a NF-kappaB transcription factor inducible E-selectin (ELAM-1) luciferase reporter derived from the plasmid pGL3 (Promega) containing base pairs −2241 bp to −254 bp from the promoter of the human E-selectin gene (Accession No. NM_000450). These cells were then subsequently engineered to stably and individually express human TLR4, TLR7 or TLR9 full-length ORF cDNAs. Human TLR4 cDNA (Accession No. NM_138554) was cloned into pcDNA 3.0 expression vector (Invitrogen). TLR4 transfected cells were also engineered to express human MD-2 co-receptor [MD-2 cDNA (Accession No. NM_015364) was cloned into the pEF-BOS vector] and were supplemented with 10 nM soluble CD14 (R&D Systems) in the media to optimize LPS responsiveness. Human TLR9 cDNA (Accession No. NM_017442) was cloned into the pBluescript II KS vector (Agilent). Human TLR7 cDNA (Accession No. NM_016562) was obtained from OriGene. HEK-293 cells stably expressing human TLR8 (Accession No. NM_138636) or mouse TLR7 (Accession No. NM_133211) were purchased from InvivoGen and were then stably transfected with pNiFty2(NF-kappaB)-luciferase reporter plasmid (InvivoGen). Each cell type was plated in Dulbecco's modified Eagle's medium (DMEM) containing 10% fetal bovine serum (FBS) at a density of 2.22×10^5 cells/ml into a 384-well plate and incubated for 2 days at 37° C., 5% CO2. Varying concentrations of antagonist compounds were then added. Cells were then incubated for another 30 minutes before adding the appropriate TLR agonist as follows (final concentrations indicated): lipopolysaccharide (LPS; Sigma) at 10 ng/ml for TLR4, CL097 (InvivoGen) at 3 ug/ml for human TLR7 and TLR8 and mouse TLR7, and CvG-2006-2A [sequence: […] (SEQ ID NO: 1) with phosphorothioate backbone, synthesized by Sigma-Aldrich] at 0.6 uM for TLR9.

The next test concerns the target T2, mouse TLR7 (Mus musculus, UniProt P58681).
T2 sequence (P58681 27-1050): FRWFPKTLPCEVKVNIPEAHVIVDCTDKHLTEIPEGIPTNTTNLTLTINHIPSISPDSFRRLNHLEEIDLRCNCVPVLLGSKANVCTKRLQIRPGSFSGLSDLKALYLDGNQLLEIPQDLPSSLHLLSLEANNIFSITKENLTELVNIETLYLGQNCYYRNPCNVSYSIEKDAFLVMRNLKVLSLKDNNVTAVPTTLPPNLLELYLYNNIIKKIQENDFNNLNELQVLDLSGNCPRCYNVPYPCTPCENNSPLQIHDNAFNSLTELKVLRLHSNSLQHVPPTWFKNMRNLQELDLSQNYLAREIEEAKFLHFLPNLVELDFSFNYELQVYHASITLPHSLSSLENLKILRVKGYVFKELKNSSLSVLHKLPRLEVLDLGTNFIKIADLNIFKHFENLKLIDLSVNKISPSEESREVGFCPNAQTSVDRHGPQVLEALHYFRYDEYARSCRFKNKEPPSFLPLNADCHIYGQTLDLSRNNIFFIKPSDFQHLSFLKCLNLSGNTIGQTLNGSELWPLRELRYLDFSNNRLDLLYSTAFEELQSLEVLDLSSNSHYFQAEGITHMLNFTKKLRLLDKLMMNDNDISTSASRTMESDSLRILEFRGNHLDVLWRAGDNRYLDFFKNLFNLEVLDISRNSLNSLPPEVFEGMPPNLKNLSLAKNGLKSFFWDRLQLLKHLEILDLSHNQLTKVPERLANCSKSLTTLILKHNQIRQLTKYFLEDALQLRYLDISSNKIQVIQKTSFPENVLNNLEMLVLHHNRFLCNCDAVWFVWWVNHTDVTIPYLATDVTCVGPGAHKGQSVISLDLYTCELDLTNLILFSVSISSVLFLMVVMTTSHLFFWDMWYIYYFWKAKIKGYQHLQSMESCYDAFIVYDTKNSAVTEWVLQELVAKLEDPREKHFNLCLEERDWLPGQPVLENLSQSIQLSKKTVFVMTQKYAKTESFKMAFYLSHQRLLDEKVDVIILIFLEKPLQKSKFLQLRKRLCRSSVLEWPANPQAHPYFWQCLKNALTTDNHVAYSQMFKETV
Put plainly: Short-term in vivo (STIV) assay: oral dosing, R848 s.c., plasma IL-6. Details: female BALB/c mice (Jackson Labs, Bar Harbor, Me.) were dosed by oral gavage; tissue Jackson Labs; host or cells: living female BALB/c mice; plasma IL-6 after s.c. R848. Summed up:
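Female BALB/c mice (6–8 weeks) dosed orally with compound in 0.5% aqueous methyl-cellulose at 33, 100 or 300 mg/kg; at various times afterwards given 15 ug R848 s.c. to stimulate TLR7. Plasma IL-6 measured by ELISA to gauge potency and duration of action.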

For a further test, the system named is Mouse Splenocytes. Briefly: Mouse spleen cell-based assay (R848, IL-6 ELISA). Particulars: BALB/c spleen cells, 370 nM R848. How it is done: Mouse Spleen cell-based assay. Spleens were harvested from female BALB/c mice (Jackson Labs, Bar Harbor, Me.) euthanized by CO2. A single cell suspension was obtained by passing spleens through a 40 μm an nylon cell strainer. Cells were washed twice with 50 ml PBS (Mediatech, Inc., Manassas, Va.) and red blood cells were lysed in 5 ml RBC Lysis buffer (eBioscience, Inc., San Diego, Calif.) for 5 minutes at room temperature. Cells were washed twice more in PBS and finally resuspended in supplemented RPMI-1640 at 2.5×10^6 cells/ml. Cells were plated at 100 μl/well (2.5×10^5 cells/well) in 96-well tissue culture treated plates (Falcon). Serial dilutions of compounds solubilized in 100% DMSO were added in triplicate to cells to yield a final concentration of 0.1% DMSO. Cells were incubated with compound for 30 minutes at 37° C., 5% CO2 before adding 100 μl/well of 740 nM R848 (Resiquimod; GLSynthesis, Worcester, Mass.) in complete media for a final concentration of 370 nM R848. Cells were incubated for 20 hours at 37° C., 5% CO2. Culture supernatants were collected, and levels of IL-6 were assessed by standard ELISA procedure according to the manufacturer's recommended protocol (BD Biosciences, Inc., San Diego, Calif.).

For the compound `CC[C@@H]1CN(c2ccc(C#N)c3ncccc23)C[C@H](CO)O1` [ER-887199], the IC50 in the test on Human TLR7/8 amounted to 0.117 µM; at human TLR8 it was 0.077 µM.
The corresponding values for `C[C@@H]1CN(c2ccc(C#N)c3ncccc23)C[C@H](CN2CCN(c3ccccc3)CC2)O1` [ER-887258] are 0.055 µM and 0.175 µM.
In the case of `CC(=O)N1CCN(C[C@H]2CN(c3ccc(C#N)c4ncccc34)C[C@@H](C)O2)CC1` [ER-887261], the IC50 came out at 0.12 µM with Human TLR7/8 and 0.077 µM on human TLR8.
The corresponding values for `C[C@@H]1CN(C[C@H]2CN(c3ccc(C#N)c4ncccc34)C[C@@H](C)O2)[C@H](C)CN1` [ER-887271] are 0.002 µM and 0.0016 µM.
Consider `C[C@@H]1CN(c2ccc(C#N)c3ncccc23)C[C@H](CN2C[C@H](C)NC[C@H]2C)O1` [ER-887272], for which the IC50 in the test with Human TLR7/8 was determined as 0.002 µM; at human TLR8, 0.0029 µM.
The corresponding values for `C[C@@H]1CN(c2ccc(C#N)c3ncccc23)C[C@H](CNC2CCC2)O1` [ER-887443] are 0.032 µM and 0.138 µM.
The corresponding values for `C[C@@H]1CN(c2ccc(C#N)c3ncccc23)C[C@H](CNC2CCC(O)CC2)O1` (some centres unmarked) [ER-887526] are 0.05 µM and 0.122 µM.
The corresponding values for `C[C@@H]1CN(c2ccc(C#N)c3ncccc23)C[C@H](CNc2ccc(-c3ccccc3)cn2)O1` [ER-887538] are 0.048 µM and 0.085 µM.
On to `C[C@@H]1CN(c2ccc(C#N)c3ncccc23)C[C@H](CNc2ncccc2-c2ccccc2)O1` [ER-887540], for which the IC50 in the test on Human TLR7/8 was found to be 0.001 µM; at human TLR8, 0.003 µM.
The corresponding values for `CCOc1cccnc1NC[C@H]1CN(c2ccc(C#N)c3ncccc23)C[C@@H](C)O1` [ER-887587] are 0.001 µM and 0.0018 µM.
The corresponding values for `C[C@@H]1CN(c2ccc(C#N)c3ncccc23)C[C@H](CNc2ccnc(-c3ccccc3)c2)O1` [ER-887588] are 0.001 µM and 0.0005 µM.
Regarding `C[C@@H]1CN(c2ccc(C#N)c3ncccc23)C[C@H](CN2CCCN(C)CC2)O1` [ER-889601], the “% Suppression vs. Vehicle” value at mouse TLR7 (3 h, 100 mg/kg) is reported as 96%; at mouse TLR7 (6 h, 33 mg/kg), 95%; on mouse TLR7 (6 h, 100 mg/kg) it was 90%; at mouse TLR7 (19 h, 100 mg/kg) it was 96%. In addition, the IC50 in the test with Mouse Splenocytes was determined as 0.179 µM.
Regarding `CC1CN(c2ccc(C#N)c3ncccc23)CC(CN2CCC(N3CCCCC3)C2)O1.Cl.Cl` (centres unmarked) [ER-890311], the “% Suppression vs. Vehicle” value at mouse TLR7 (3 h, 33 mg/kg) was determined as 88%; at mouse TLR7 (19 h, 3.67 mg/kg) it was 0%; at mouse TLR7 (19 h, 11 mg/kg) it was 0%; on mouse TLR7 (19 h, 33 mg/kg), 0%. The IC50 in the test with Mouse Splenocytes was found to be 0.428 µM.
For the compound `C[C@@H]1CN(c2ccc(C#N)c3ncccc23)C[C@H](CN2CCN(C)[C@@H](C)C2)O1` [ER-890831], the values for the IC50 in the test on Human TLR7/8 and in the test with Mouse Splenocytes were 0.001 µM and 0.17 µM, respectively.
With `CC1CN(c2ccc(C#N)c3ncccc23)CC(CN2CCC(NS(C)(=O)=O)CC2)O1` (centres unmarked) [ER-893948], the IC50 with Human TLR7/8 turned out to be 0.15 µM; with Mouse Splenocytes (Mus musculus, Splenocyte) it was 0.42 µM.
In the case of `C[C@@H]1CN(c2ccc(C#N)c3ncccc23)C[C@H](CN2CC(NC(=O)c3ccccc3)C2)O1` [ER-894594], the IC50 in the test on Human TLR7/8 worked out at 0.087 µM; on human TLR8 it was 0.116 µM.
